In PMC9241057, “Ru(II)arene(N^N bpy/phen)-based RAPTA complexes for in vitro anti-tumour activity in human glioblastoma cancer cell lines and in vivo toxicity studies in a zebrafish model” (RSC Advances, 2022):

Assays:
[1] = tested on: LN229; assay: MTT cytotoxicity assay, LN229; format: cell-based, human; details: 72 h incubation
Description: (§1) The cytotoxic activity of prepared RAPTA complexes (4a–4h) was evaluated by following the standard procedure of the MTT experiment against a series of glioblastoma cells (LN 229, T98, U87MG) in triplicate. In order to accomplish this study, cells were maintained for 72 h with complexes of various concentrations ranging from 2–160 μM, taking cisplatin as a typical positive control.[22]
(§2) RAPTA complexes were dissolved in 1% DMSO, and 0.9% NaCl aqueous solution was used to dissolve cisplatin. A cell suspension was prepared and the number of cells taken was 2.5 × 10^4 mL^−1. The cells were seeded in 96-well plates (200 μL per well) and allowed 80% confluence prior to treatment. The cells were formerly treated with various concentrations (2.5–160 μM) of complex 4a–h while the control group was treated with PBS […]. After the 72 hours of incubation, 0.5% MTT solution was added to each well (20 μL) and further incubated for 4 hours at […]. The formazan crystals that were formed were dissolved in 150 μL DMSO and then the OD was measured by a microplate reader at 540 nm. The % growth inhibition of the control and treated cells were calculated and represented as the growth inhibition percentage as explained below.% growth inhibition = 100 − [(AD × 100)/AB]where AD is the absorbance measured in wells containing the treated and control samples and AB is the measured absorbance for the wells with media and a vehicle that served as the blank. IC50 was calculated using Graphpad Prism (version 6.0) where % cell viability was plotted against drug concentration.

[2] = tested on: T98; assay: MTT cytotoxicity assay, T98; format: cell-based, human; details: 72 h incubation
Description: as §1, §2

[3] = tested on: U87MG; assay: MTT cytotoxicity assay, U87MG; format: cell-based, human; details: 72 h incubation
Description: as §1, §2

[4] = Conductivity measurement; format: physicochemical; details: 3 x 10^-5 M; for Conductivity (ΛM) 10% aq DMSO: in 10% aq DMSO; for Conductivity (ΛM) DMSO: in DMSO
From the text: concentrations gradually.
Origin Lab, version 8.5 was
equation (v) given below: […]
Conductivity measurement 7
complexes with DMSO and aqueous DMSO.
followed the previously described procedure. An orbital shaker was used to shake a known
Different ratios (0.5:1, 1:1,
saturated n-octanol to get the partition coefficient. The absorbance of aliquots of the aqueous

[5] = tested on: Ct-DNA; details: comparison value, no reference given; cited from earlier work
[6] = tested on: EtBr-bound DNA (Ct-DNA); set-up: method as in PMID 34612310; details: from literature ref 20; cited from earlier work
[7] = n-Octanol/water partition coefficient, shake-flask method
Description: n-Octanol–water partition coefficient (log P o/w)8
Using the previously reported shake flask approach, the log Po/w of the RAPTA complexes
amount of each complexes in water (pre-saturated with n-octanol). The solution was
centrifuged at 3000 rpm for 10 minutes to allow phase separation. Different ratios (0.5:1, 1:1,
and 2:1) of saturated solutions were shaken for 20 minutes on an orbital shaker with pre-
and octanol layers were measured with a UV-Vis spectrophotometer after adequate dilution.
The concentrations of the complexes in each layer were estimated using the corresponding
molar extinction coefficients, and the partition coefficient (log Po/w) values were computed

[8] = Solubility; details: DMSO-10% DMEM medium (1:99 v/v, comparable to cell media)

Work on `C1N2CN3CN1CP(C2)C3.CCCCCCCCCc1ccnc(-c2cc(CCCCCCCCC)ccn2)c1.Cc1ccc(C(C)C)cc1.F[P-](F)(F)(F)(F)F.F[P-](F)(F)(F)(F)F.[Ru+2]` [4h, [(η^6-p-Cymene)Ru^II(κ^2-N,N-4,4′ dinonylbipyridine)(PTA)]·2PF6] yielded an IC50 [1] of 1640 ± 30 nM, an IC50 [2] of 1470 ± 30 nM and an IC50 [3] of 1460 ± 30 nM. The “Conductivity (ΛM) 10% aq DMSO” value [4] was 77 S cm2 mol-1 and the “Conductivity (ΛM) DMSO” value [4] was 71 S cm2 mol-1.
In the case of `CC[n+]1c(-c2ccccc2)c2cc(N)ccc2c2ccc(N)cc21` [EtBr, ethidium bromide], the “KEtBr, DNA binding constant of the typical intercalator” value [5] is listed as 700000 M⁻¹ and the “KEtBr, EtBr binding constant” value [6] is listed as 1e+07 M⁻¹.
Work on `C1N2CN3CN1CP(C2)C3.Cc1ccc(C(C)C)cc1.F[P-](F)(F)(F)(F)F.F[P-](F)(F)(F)(F)F.[Ru+2].c1cnc2c(c1)ccc1cccnc12` [4b, [(η^6-p-Cymene)Ru^II(κ^2-N,N-phenanthroline)(PTA)]·2PF6] yielded an IC50 [1] of 2190 ± 160 nM, an IC50 [2] of 1910 ± 80 nM and an IC50 [3] of 1910 ± 80 nM. For the same molecule, the “Conductivity (ΛM) 10% aq DMSO” value [4] was 78 S cm2 mol-1 and the “Conductivity (ΛM) DMSO” value [4] was 74 S cm2 mol-1.
Molecule “cis-[Pt(NH3)2Cl2] [Cisplatin, reference compound]” has an IC50 [1] of 1400 ± 50 nM, an IC50 [2] of 1360 ± 50 nM and an IC50 [3] of 1370 ± 40 nM.
In the case of `C1N2CN3CN1CP(C2)C3.Cc1ccc(C(C)C)cc1.F[P-](F)(F)(F)(F)F.F[P-](F)(F)(F)(F)F.[Ru+2].c1ccc(-c2ccccn2)nc1` [4e, [(η^6-p-Cymene)Ru^II(κ^2-N,N-bipyridine)(PTA)]·2PF6], the IC50 [1] is reported as 1890 ± 60 nM, the IC50 [2] is reported as 1990 ± 40 nM and the IC50 [3] is reported as 1750 ± 30 nM. For the same molecule, the “log P (partition coefficient in n-octanol/water)” value [7] was 1.4±0.08.
“[(η^6-p-Cymene)Ru^II(κ^2-N,N-4,4′ dimethylbipyridine)(PTA)]·2PF6 [4g]” showed an IC50 [1] of 1690 ± 20 nM, an IC50 [2] of 1700 ± 30 nM and an IC50 [3] of 1700 ± 30 nM. For the same molecule, the “Conductivity (ΛM) 10% aq DMSO” value [4] was 74 S cm2 mol-1 and the “Conductivity (ΛM) DMSO” value [4] was 72 S cm2 mol-1.
`C1N2CN3CN1CP(C2)C3.Cc1ccc(C(C)C)cc1.F[P-](F)(F)(F)(F)F.F[P-](F)(F)(F)(F)F.O=C(O)c1ccnc(-c2cc(C(=O)O)ccn2)c1.[Ru+2]` [4f, [(η^6-p-Cymene)Ru^II(κ^2-N,N-4,4′ dicarboxylic acid bipyridine)(PTA)]·2PF6] showed an IC50 [1] of 1790 ± 20 nM, an IC50 [2] of 2120 ± 30 nM and an IC50 [3] of 1570 ± 20 nM. For the same molecule, the “Conductivity (ΛM) 10% aq DMSO” value [4] was 77 S cm2 mol-1, the “Conductivity (ΛM) DMSO” value [4] was 75 S cm2 mol-1 and the solubility [8] was 17 mM. The “log P (partition coefficient in n-octanol/water)” value [7] was 0.33±0.03.
In the case of `C1N2CN3CN1CP(C2)C3.Cc1ccc(C(C)C)cc1.F[P-](F)(F)(F)(F)F.F[P-](F)(F)(F)(F)F.Oc1ccnc2c1ccc1c(O)ccnc12.[Ru+2]` [4a, [(η^6-p-Cymene)Ru^II(κ^2-N,N-4,7dihydroxyphenanthroline)(PTA)]·2PF6], the IC50 [1] is reported as 1800 ± 40 nM, the IC50 [2] is reported as 1950 ± 40 nM and the IC50 [3] is reported as 1690 ± 40 nM. The “Conductivity (ΛM) 10% aq DMSO” value [4] was 74 S cm2 mol-1 and the “Conductivity (ΛM) DMSO” value [4] was 72 S cm2 mol-1.
